In article PMC5651824, “Membrane binding of the insertion sequence of Proteus vulgaris L-amino acid deaminase stabilizes protein structure and increases catalytic activity” (Scientific Reports, 2017):

What was measured:
ΔN-pvLAAD = target: T1, ΔN-pvLAAD (Proteus vulgaris, UniProt Q9LCB2); test: phenylpyruvate formation, absorbance at […] nm; assay type: biochemical; conditions: without membrane; 25 mM substrate; 50 mM potassium phosphate pH 7.5; 25 °C; 10 µM enzyme
T1 construct: gene LAD; N-terminal Tat peptide truncated, residues 30-471; recombinant in E. coli M15, Ni-NTA (His tag) and size exclusion
T1 sequence (Q9LCB2 30-471): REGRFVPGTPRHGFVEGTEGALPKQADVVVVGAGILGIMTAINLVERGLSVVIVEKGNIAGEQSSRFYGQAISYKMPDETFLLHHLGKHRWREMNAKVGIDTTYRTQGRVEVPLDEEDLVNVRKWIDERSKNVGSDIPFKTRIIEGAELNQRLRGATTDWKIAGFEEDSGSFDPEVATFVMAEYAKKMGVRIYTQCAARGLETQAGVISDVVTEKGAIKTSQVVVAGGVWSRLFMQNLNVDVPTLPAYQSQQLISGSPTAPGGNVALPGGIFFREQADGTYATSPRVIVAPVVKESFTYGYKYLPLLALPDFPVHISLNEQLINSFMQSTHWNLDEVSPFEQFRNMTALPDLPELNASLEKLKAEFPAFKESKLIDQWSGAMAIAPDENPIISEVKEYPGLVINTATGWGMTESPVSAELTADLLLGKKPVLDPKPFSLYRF

purified protein = substrate: N[C@@H](Cc1ccccc1)C(=O)O; test: purified protein; assay type: biochemical, Proteus vulgaris; conditions: without membrane, 50 mM potassium phosphate pH 7.5, 37 °C, 5 µM enzyme, 5 min

Question: Which “phenylpyruvate formation, absorbance at 321 nm” value (ΔN-pvLAAD) does the source give for `N[C@@H](Cc1ccccc1)C(=O)O` [L-phenylalanine] here?
Answer: does not affect the catalytic activity of pvLAAD in solution

B1: FL-pvLAAD (Proteus vulgaris) (protein)
chain: MAISRRKFIIGGTVVAVAAGAGILTPMLTREGRFVPGTPRHGFVEGTEGALPKQADVVVVGAGILGIMTAINLVERGLSVVIVEKGNIAGEQSSRFYGQAISYKMPDETFLLHHLGKHRWREMNAKVGIDTTYRTQGRVEVPLDEEDLVNVRKWIDERSKNVGSDIPFKTRIIEGAELNQRLRGATTDWKIAGFEEDSGSFDPEVATFVMAEYAKKMGVRIYTQCAARGLETQAGVISDVVTEKGAIKTSQVVVAGGVWSRLFMQNLNVDVPTLPAYQSQQLISGSPTAPGGNVALPGGIFFREQADGTYATSPRVIVAPVVKESFTYGYKYLPLLALPDFPVHISLNEQLINSFMQSTHWNLDEVSPFEQFRNMTALPDLPELNASLEKLKAEFPAFKESKLIDQWSGAMAIAPDENPIISEVKEYPGLVINTATGWGMTESPVSAELTADLLLGKKPVLDPKPFSLYRF
notes: full-length with non-cleaved N-terminal Tat peptide (ends at residue 471); recombinant in E. coli M15, Ni-NTA (His tag) and size exclusion
Question: For B1, which Km (purified protein) is on record?
Answer: 12.56 ± 3.19 mM
